Experimental data reported in patent US20240024274A1, “O-ACETYLSERINE FOR THE USE THEREOF IN THE PREVENTION AND TREATMENT OF GLUCOSE INTOLERANCE AND THE ASSOCIATED DISEASES” (INSTITUT NATIONAL DE RECHERCHE POUR L'AGRICULTURE, …, priority 2020, published 2024).
“Also recorded” adds a separate entry of the source.

Assays:
Format in all cases: in vivo
[1] = system: C57BL/6JRj mice fed a high fat diet; assay: Oral glucose tolerance test (OGTT) in mice on high fat diet (HFD) treated with OAS
Protocol: Male C57BL/6JRj mice aged 7 weeks from Janvier Labs were fed a high fat diet (HFD, 45% fat and 20% sucrose) for 12 weeks. […] A first group of 10 mice fed this diet was treated with a daily dose of OAS of 200 mg/kg/d, at a frequency of 5 days per week during the 12 weeks of diet. The OAS used was the product sold as A6262_SIGMA by Sigma-Aldrich (CAS No. 66638-22-0). This group is the HFD+OAS group. […] This is the HFD group. […] An oral glucose tolerance test (OGTT) was performed on each of the three groups of mice. This test consists of monitoring the plasma glucose concentrations for 120 min, after the mice have received an oral glucose load. Thus, at T0 (fasting blood glucose), glucose (2 g/kg) is given orally to the animal. A drop of blood is taken from the tail every 30 minutes for 120 minutes so as to measure the blood glucose level with a strip glucose meter (Accu-Check Perfoma, available in pharmacies). Glucose tolerance is a reflection of the body's ability to regulate the return to a normal blood glucose level after a glucose load. The OGTT was performed at 5 weeks and 9 weeks after the start of the obesogenic diet. The results of this test show the installation of glucose intolerance as early as 5 weeks in the groups of mice on the HFD diet.

C57BL/6JRj mice [2] = assay: Oral glucose tolerance test (OGTT) in healthy mice after 5-day OAS treatment; conditions: OAS 1000 mg/kg daily for 5 days, vs control group; for area under the curve of the OGTT: glucose 2.5 g/kg oral
Protocol: Male C57BL/6JRj mice aged 7 weeks from Janvier Labs were fed with a conventional diet used in pet shops. A first group of 10 mice, not treated with OAS, served as a control group. A second group of 10 mice was treated with a daily dose of OAS at 1000 mg/kg for 5 days. The OAS used was the product sold under the name A6262_SIGMA by the company Sigma-Aldrich (CAS No. 66638-22-0). This group is the OAS treatment group. An oral glucose tolerance test (OGTT) was performed on each of the two groups of mice. This test consists of monitoring the plasma glucose concentrations for 120 min, after the mice have received an oral glucose load. Thus, at T0 (fasting blood glucose level), glucose (2.5 g/kg) is given orally to the animal. A drop of blood is taken from the tail every 15 to 30 minutes for 90 minutes to measure the blood glucose level with a strip glucose meter (Accu-Check Perfoma, available in pharmacies). The OGTT was performed on the fifth day of treatment 2 h after the OAS treatment group received a dose of 500 mg/kg. At the time of the OGTT, the mice of the treatment group also received 500 mg/kg of OAS along with the oral glucose load. The control group received only the oral glucose load.

C57BL/6JRj mice [3] = assay: Oral glucose tolerance test (OGTT) in healthy mice, single dose of OAS with the glucose load; conditions: single dose OAS 1000 mg/kg along with glucose 2.5 g/kg oral; vs control group
Protocol: Male C57BL/6JRj mice aged 7 weeks from Janvier Labs were fed with a conventional diet used in pet shops. A first group of 5 mice, not treated with OAS, served as a control group. A second group of 5 mice was treated with a single dose of OAS at 1000 mg/kg. The OAS used was the product sold under the name A6262 SIGMA by the company Sigma-Aldrich (CAS No. 66638-22-0). This group is the OAS treatment group. An oral glucose tolerance test (OGTT) was performed on each of the two groups of mice. This test consists of monitoring the plasma glucose concentrations for 120 min, after the mice have received an oral glucose load. Thus, at T0 (fasting blood glucose level), glucose (2.5 g/kg) is given orally to the animal. […] In the OGTT test, the OAS treatment group received a dose of 1000 mg/kg of OAS along with the oral glucose load. The control group received only the oral glucose load.

[4] = Epididymal adipose tissue weight of HFD mice after 12 weeks of diet and treatment; conditions: after 12 weeks of HFD and OAS 200 mg/kg/d, ****p<0.0001
Protocol: Male C57BL/6JRj mice aged 7 weeks from Janvier Labs were fed a high fat diet (HFD, 45% fat and 20% sucrose) for 12 weeks. […] A first group of 10 mice fed this diet was treated with a daily dose of OAS of 200 mg/kg/d, at a frequency of 5 days per week during the 12 weeks of diet. The OAS used was the product sold as A6262_SIGMA by Sigma-Aldrich (CAS No. 66638-22-0). This group is the HFD+OAS group. […] This is the HFD group. […] These features are indicative of an establishment of obesity in the mice (FIG. 1).

Q: With `CC(=O)OC[C@H](N)C(=O)O` [OAS, O-acetylserine] as the compound, how does the “effect on glucose intolerance (OGTT)” value ([1]; HFD mice, OAS 200 mg/kg/d 5 days per week, after 5 weeks) read?
A: Its value is “no visible effect”.

Q: What about the “glucose intolerance (OGTT)” value ([1]; HFD mice, OAS 200 mg/kg/d 5 days per week, after 9 weeks) of the same compound?
A: The value was “significantly decreases”.

Q: What about the “difference in area under the curve of the OGTT between control group and HFD+OAS group” value ([1]; after 5 weeks, ****p<0.0001) of the same compound?
A: Its value is “significant”.

Q: And the “difference in area under the curve of the OGTT between HFD group and HFD+OAS group” value ([1]; after 9 weeks, *p<0.05)?
A: The value was “significant”.

Q: What about the “difference in plasma glucose concentration between control group and HFD+OAS group” value ([1]; after 9 weeks, from t=60 min after oral glucose load) of the same compound?
A: The value was “no longer significant”.

Q: And the “difference in plasma glucose concentration between HFD group and HFD+OAS group” value ([1]; after 9 weeks, t=30 min after oral glucose load, p<0.0001)?
A: Its value is “significant”.

Q: And the “fasting blood glucose level” value (C57BL/6JRj mice [2]; conventional diet)?
A: The value was “tended to be lower; also recorded: decreases”.

Q: And the “blood glucose levels after the oral glucose load (hyperglycemia induced by an oral glucose load)” value (C57BL/6JRj mice [2]; 15 min, 30 min and 60 min after glucose 2.5 g/kg oral)?
A: The value was “significantly lower; also recorded: significantly decreases; also recorded: significant”.

Q: What about the “area under the curve of the OGTT” value (C57BL/6JRj mice [2]) of the same compound?
A: The value was “significant”.

Q: What about the “area under the curve of the OGTT” value (C57BL/6JRj mice [2]; listed as O-acetylserine) of the same compound?
A: Its value is “lower than that of the control group”.

Q: What about the “area under the curve of the OGTT” value (C57BL/6JRj mice [3]) of the same compound?
A: The value was “lower area under the curve than the control group; also recorded: significant”.

Q: And the “blood glucose levels at 15 min after the oral glucose load” value (C57BL/6JRj mice [3])?
A: Its value is “significantly lower; also recorded: significantly decreases”.

Q: And the “difference in epididymal adipose tissue weight between control group and HFD+OAS group” value [4]?
A: Its value is “statistically significant”.
